According to patent US20230103631A1, “PEPTIDES AS SELECTIVE GIP RECEPTOR AGONISTS” (Sanofi, priority 2020, published 2023):
*1 amine or outer side, *2 acyl side, *3 side chain or, on linkers, in order; H or OH if unused. Where a SMILES comes first, the peptide text is derived from it. Side-chain parts run from the residue outwards. [ ]: non-standard residue; d: D form. The star is where a group is joined. C18 diacid = O=C(O)CCCCCCCCCCCCCCCCC(=O)*; γGlu = O=C(O)[C@H](CCC(=O)[*:2])N[*:1]; NMeY = CN[C@@H](Cc1ccc(O)cc1)C(=O)O; AEEA = NCCOCCOCC(=O)O; Aib = CC(C)(N)C(=O)O

What was measured:
[1] = Chemical stability assessment (relative purity loss by UHPLC-UV); type: physicochemical
Procedure: Purity of a peptide batch was determined through UHPLC/MS prior to chemical stability measurement. The target concentration was […] pure compound. Solutions from solid samples were prepared in the following buffer systems with a concentration of ˜300 μM compound based on the previously determined % purity:
Chemical stability buffer system A) 20 mM phosphate buffer pH 7.4,
Chemical stability buffer system B) 8 mM phosphate buffer pH 7.4, 14 mg/ml propylene glycol, 5.5 mg/ml phenol
Chemical stability buffer system C) 100 mM phosphate buffer pH 7.4, 2.7 mg/ml m-cresol
Prepared solutions were filtered through […] pore size and filled into sterilized glass containers under laminar flow conditions.
Glass containers were stored for 28 days at 5 and 40° C. After this time, the samples were centrifuged for 15 min at 2500 RCF. Then 1.5 μl of the undiluted supernatant were analysed with UHPLC-UV.
The chemical stability was rated through the relative loss of purity calculated by the equation:
[(purity after 28 days at 5° C.)−(purity after 28 days at 40° C.)]/(purity after 28 days at 5° C.)]*100%
The purity is calculated as
[(peak area peptide)/(total peak area)]*100%
The analytical methods used were Analytical UHPLC Method B or C.
Peptide samples were prepared in Chemical stability buffer system A or B and stability was assessed as described in Methods.

[2] = target: human GLP-1 receptor (hGLP-1R) (Homo sapiens, UniProt P43220); assay: cAMP HTRF assay, HEK-293 cell line over-expressing human GLP-1 receptor; type: cell-based; details: HEK-293, cAMP, 0% HSA
human GLP-1 receptor (hGLP-1R), sequence (P43220 24-463): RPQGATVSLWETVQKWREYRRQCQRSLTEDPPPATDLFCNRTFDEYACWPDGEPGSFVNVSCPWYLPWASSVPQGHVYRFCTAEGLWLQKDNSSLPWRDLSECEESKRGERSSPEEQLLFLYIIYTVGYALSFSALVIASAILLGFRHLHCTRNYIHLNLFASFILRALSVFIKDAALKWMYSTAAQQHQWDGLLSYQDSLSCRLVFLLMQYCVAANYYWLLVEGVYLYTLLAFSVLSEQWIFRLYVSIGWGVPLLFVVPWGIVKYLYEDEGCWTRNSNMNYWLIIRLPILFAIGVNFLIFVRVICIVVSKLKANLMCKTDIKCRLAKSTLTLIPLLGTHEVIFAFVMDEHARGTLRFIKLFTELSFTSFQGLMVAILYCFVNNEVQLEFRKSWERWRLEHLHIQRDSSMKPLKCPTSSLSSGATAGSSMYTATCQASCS
Procedure: Each vial contained 1.8 ml cells. The vials were slowly frozen to −80° C. in isopropanol, and then transferred in liquid nitrogen for storage.
Prior to their use, frozen cells were thawed quickly at 37° C. and washed (5 min at 900 rpm) with 20 ml cell buffer (1× HBSS; 20 mM HEPES, plus 0.1% HSA if indicated in Example conditions).
For measurement of cAMP generation, 5 μl cells (final 5000 cells/well) and 5 μl of test compound were added to a 384-well plate, followed by incubation for 30 min at room temperature.
The cAMP generated was determined using a kit from Cisbio Corp. based on HTRF (Homogenous Time Resolved Fluorescence). The cAMP assay was performed according to manufacturer's instructions (Cisbio).

physchem = type: physicochemical; details: for Soluble amount: 24 h, pH 7.4; for solubility at 24 h: pH 7.4, Soluble amount
Procedure: Prior to the solubility measurement of a peptide batch, its purity was determined through UHPLC/MS. […] Therefore, solutions from solid samples were prepared in a buffer system with a concentration of 10 mg/ml compound based on the previously determined % purity: Solubility buffer system A) 100 mM phosphate buffer pH 7.4 […] Solubility buffer system C) 100 mM phosphate buffer pH 7.4, 2.7 mg/ml m-cresol UHPLC-UV was performed after 1 h of gentle agitation and storage at 5° C. over night (24 h) from the supernatant, which was obtained after 15 min of centrifugation at 2500 RCF (relative centrifugal acceleration). […] The different UV extinction coefficients of sample and reference peptide were calculated based on the different amino acid sequences and considered in the concentration calculation. The analytical method used was Analytical UHPLC Method A. Peptide samples were prepared in solubility buffer system A or C and solubility was assessed as described in Methods.

human GIP receptor = target: T1, human GIP receptor (Homo sapiens, UniProt P48546); assay: cAMP HTRF assay in human adipocytes endogenously expressing the human GIP receptor; type: cell-based; details: for EC50: read-out: hGIPR EC50; for Emax: read-out: hGIPR Emax
T1 construct: human adipocytes endogenously expressing the human GIP receptor; host or cells: human preadipocytes (Lonza) differentiated to adipocytes
T1 sequence (P48546 22-466): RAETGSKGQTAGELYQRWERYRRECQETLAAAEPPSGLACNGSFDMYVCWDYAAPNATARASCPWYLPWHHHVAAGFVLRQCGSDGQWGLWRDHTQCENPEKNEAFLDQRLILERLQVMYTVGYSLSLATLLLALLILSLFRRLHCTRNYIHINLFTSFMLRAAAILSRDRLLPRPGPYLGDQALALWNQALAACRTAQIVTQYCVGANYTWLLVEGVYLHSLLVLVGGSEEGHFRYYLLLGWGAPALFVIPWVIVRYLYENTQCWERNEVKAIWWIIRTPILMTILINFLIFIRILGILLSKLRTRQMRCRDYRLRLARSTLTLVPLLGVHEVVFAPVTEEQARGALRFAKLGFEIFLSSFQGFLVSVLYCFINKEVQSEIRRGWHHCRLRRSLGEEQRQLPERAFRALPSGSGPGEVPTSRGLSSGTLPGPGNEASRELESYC
Procedure: For this, one vial of human preadipocytes (˜10^6 cells; Lonza) was thawed in a T-75 cell culture dish.
After 3 days, the cells were washed with PBS and 1.5 ml Trypsin, incubated for 4 min, then resuspended in medium, centrifugated for 10 min @ 300 rcf RT, resuspended again and distributed to four T-75 cell culture dishes.
After 5 days, the cells were washed with PBS and 1.5 ml Trypsin, incubated for 4 min, then resuspended in medium, centrifugated for 10 min @ 300 rcf RT, resuspended again and sawn in T-75 dishes (2.5×10^6 cells per dish) in 15 ml Differentiation medium each.
After 6 days of differentiation, 5000 cells per well were dispensed on a 96-well plate (#CLS3694 from Corning®, Sigma-Aldrich). For measurement of cAMP generation, 25 μL of test compound was added to each well of the 96-well plate, followed by incubation for 30 min at room temperature.
The cAMP generated following test compound stimulation was determined using a kit from Cisbio Corp. based on HTRF (Homogenous Time Resolved Fluorescence). The cAMP assay was performed according to manufacturer's instructions (Cisbio).
The cAMP content of cells was determined using a kit from Cisbio Corp. based on HTRF (Homogenous Time Resolved Fluorescence).

[3] = target: T2, human GIP receptor (hGIPR) (Homo sapiens, UniProt P48546); assay: Binding assay, displacement of [125I]GIP from HEK-293 membranes expressing GIPR; details: [125I]GIP displacement
T2 sequence (P48546 22-466): T1 sequence (P48546 22-466)
Procedure: HEK-293 cells recombinantly over-expressing GIPR or GLP-1R were grown to 50% confluency, washed with warm 1×PBS (Gibco) and detached in HEPES/EDTA-buffer (100 mM HEPES pH 7.5, 5 mM EDTA). Cells were harvested by centrifugation at 4° C. and 3000×g and the pellets were stored at −80° C. until further processing.
After thawing on ice, pellets were resuspended in HEPES/EDTA-buffer and homogenized on ice for 1 min using Ultra-Turray T25. After subsequent sonification the cell debris was removed by centrifugation at 1000×g and 4° C. Supernatants were then ultra-centrifuged at 100000×g and 4° C. under vacuum for 30 min. Pellets were resuspended in HEPES/EDTA/NaCl-buffer (20 mM HEPES, 1 mM EDTA, 150 mM NaCl; add 1 Complete Mini Protease inhibitor cocktail to 10 ml buffer) and protein content was determined via BCA-Protein assay.

[4] = Chemical stability buffer system A: 20 mM phosphate buffer pH 7.4

Compound | Relative purity loss over 28 days at 40° C. [1, 4] | EC50 [2] | Soluble amount (physchem) | solubility at 24 h (physchem) | EC50 (human GIP receptor) | Emax (human GIP receptor) | IC50 [3] | Relative purity loss over 28 days at 40° C. ([1]; Chemical stability buffer system B: 8 mM phosphate buffer pH 7.4, 14 mg/ml propylene glycol, 5.5 mg/ml phenol)
CC[C@H](C)[C@H](NC(=O)[C@H](CCCNC(=N)N)NC(=O)[C@H](CC(=O)O)NC(=O)[C@H](CCCCNC(=O)COCCOCCNC(=O)COCCOCCNC(=O)CC[C@H](NC(=O)CCCCCCCCCCCCCCCCC(=O)O)C(=O)O)NC(=O)C(C)(C)NC(=O)[C@@H](NC(=O)[C@H](CO)NC(=O)[C@H](CC(C)C)NC(=O)[C@H](CC(=O)O)NC(=O)[C@H](CO)NC(=O)[C@@H](NC(=O)[C@H](Cc1ccccc1)NC(=O)[C@@H](NC(=O)CNC(=O)[C@H](CCC(=O)O)NC(=O)C(C)(C)NC(=O)[C@H](Cc1ccc(O)cc1)NC)[C@@H](C)O)[C@@H](C)CC)[C@@H](C)CC)C(=O)N[C@@H](Cc1c[nH]cn1)C(=O)N[C@@H](CCC(N)=O)C(=O)NC(C)(C)C(=O)N[C@@H](CCC(=O)O)C(=O)N[C@@H](Cc1ccccc1)C(=O)N[C@H](C(=O)N[C@@H](CCC(=O)O)C(=O)N[C@@H](Cc1c[nH]c2ccccc12)C(=O)N[C@@H](CC(C)C)C(=O)N[C@@H](CC(C)C)C(=O)N[C@@H](C)C(=O)N[C@@H](CCC(N)=O)C(=O)NCC(=O)N1CCC[C@H]1C(=O)N[C@@H](CO)C(=O)N[C@@H](CO)C(=O)NCC(=O)N[C@@H](C)C(=O)N1CCC[C@H]1C(=O)N1CCC[C@H]1C(=O)N1CCC[C@H]1C(=O)N[C@@H](CO)C(N)=O)[C@@H](C)CC [SEQ ID NO: 8, MeHN-Y-Aib-E-G-T-F-I-S-D-I-S-I-Aib-K[{AEEA}2-gGlu-C180H]-D-R-I-H-Q-Aib-E-F--E-W-I-L-A-Q-G-P-S-S-G-A-P-P-P-S-NH2] (H-[NMeY][Aib]EGTFISDLSI[Aib]K([AEEA-AEEA-γGlu-C18 diacid])DRIHQ[Aib]EFIEWLLAQGPSSGAPPPS-NH2) | 4.7% | > 10 nM | >6.4 mg/mL | > 7500 µg/mL | 0.5 nM | 116% | 0.2 nM | –
CC[C@H](C)[C@H](NC(=O)[C@H](CCCNC(=N)N)NC(=O)[C@H](CC(=O)O)NC(=O)[C@H](CCCCNC(=O)COCCOCCNC(=O)COCCOCCNC(=O)CC[C@H](NC(=O)CCCCCCCCCCCCCCCCC(=O)O)C(=O)O)NC(=O)C(C)(C)NC(=O)[C@@H](NC(=O)[C@H](CO)NC(=O)[C@H](CC(C)C)NC(=O)[C@H](CC(=O)O)NC(=O)[C@H](CO)NC(=O)[C@@H](NC(=O)[C@H](Cc1ccccc1)NC(=O)[C@@H](NC(=O)CNC(=O)[C@H](CCC(=O)O)NC(=O)C(C)(C)NC(=O)[C@@H](N)Cc1ccc(O)cc1)[C@@H](C)O)[C@@H](C)CC)[C@@H](C)CC)C(=O)N[C@@H](Cc1c[nH]cn1)C(=O)N[C@@H](CCC(N)=O)C(=O)NC(C)(C)C(=O)N[C@@H](CCC(=O)O)C(=O)N[C@@H](Cc1ccccc1)C(=O)N[C@H](C(=O)N[C@@H](CCC(=O)O)C(=O)N[C@@H](Cc1c[nH]c2ccccc12)C(=O)N[C@@H](CC(C)C)C(=O)N[C@@H](CC(C)C)C(=O)N[C@@H](C)C(=O)N[C@@H](CCC(N)=O)C(=O)NCC(=O)N1CCC[C@H]1C(=O)N[C@@H](CO)C(=O)N[C@@H](CO)C(=O)NCC(=O)N[C@@H](C)C(=O)N1CCC[C@H]1C(=O)N1CCC[C@H]1C(=O)N1CCC[C@H]1C(=O)N[C@@H](CO)C(N)=O)[C@@H](C)CC [SEQ ID NO: 4, H2N-Y-Aib-E-G-T-F-I-S-D-I-S-I-Aib-K[{AEEA}2-gGlu-C18OH]-D-R-I-H-Q-Aib-E-F-I-E-W-I-L-A-Q-G-P-S-S-G-A-P-P-P-S-NH2] (H-Y[Aib]EGTFISDLSI[Aib]K([AEEA-AEEA-γGlu-C18 diacid])DRIHQ[Aib]EFIEWLLAQGPSSGAPPPS-NH2) | – | > 10 nM | >8.4 mg/mL | > 9500 µg/mL | 0.5 nM | 116% | 0.2 nM | –
CC[C@H](C)[C@H](NC(=O)[C@H](Cc1ccccc1)NC(=O)[C@H](CCC(=O)O)NC(=O)[C@H](CCC(=O)O)NC(=O)[C@H](CCC(N)=O)NC(=O)[C@H](Cc1c[nH]cn1)NC(=O)[C@@H](NC(=O)[C@H](CCCNC(=N)N)NC(=O)[C@H](CC(=O)O)NC(=O)[C@H](CCCCNC(=O)COCCOCCNC(=O)COCCOCCNC(=O)CC[C@H](NC(=O)CCCCCCCCCCCCCCCCC(=O)O)C(=O)O)NC(=O)C(C)(C)NC(=O)[C@@H](NC(=O)[C@H](CO)NC(=O)[C@H](CC(C)C)NC(=O)[C@H](CC(=O)O)NC(=O)[C@H](CO)NC(=O)[C@@H](NC(=O)[C@H](Cc1ccccc1)NC(=O)[C@@H](NC(=O)CNC(=O)[C@H](CCC(=O)O)NC(=O)C(C)(C)NC(=O)[C@@H](N)Cc1ccc(O)cc1)[C@@H](C)O)[C@@H](C)CC)[C@@H](C)CC)[C@@H](C)CC)C(=O)N[C@@H](CCC(=O)O)C(=O)N[C@@H](Cc1c[nH]c2ccccc12)C(=O)N[C@@H](CC(C)C)C(=O)N[C@@H](CC(C)C)C(=O)N[C@@H](C)C(=O)N[C@@H](CCC(N)=O)C(=O)NCC(=O)N1CCC[C@H]1C(=O)N[C@@H](CO)C(=O)N[C@@H](CO)C(=O)NCC(=O)N[C@@H](C)C(=O)N1CCC[C@H]1C(=O)N1CCC[C@H]1C(=O)N1CCC[C@H]1C(=O)N[C@@H](CO)C(N)=O [SEQ ID NO: 9, H2N-Y-Aib-E-G-T-F-I-S-D-I-S-I-Aib-K[{AEEA}2-gGlu-C18OH]-DRIHQEEFIEWILAQGPSSGAPPPS-NH2] (H-Y[Aib]EGTFISDLSI[Aib]K([AEEA-AEEA-γGlu-C18 diacid])DRIHQEEFIEWLLAQGPSSGAPPPS-NH2) | 6.9% | > 10 nM | – | – | – | 125% | – | 8.2%
